Several values for one entry are separate records, joined by “and”; a condition that tells them apart may be missing. Identical values can stand only once. Like-named read-outs stand apart in the source and are kept apart here.
Key:
[1] = literature; cited from earlier work
[2] = biological target: T1, dihydrofolate reductase (Homo sapiens, UniProt P00374); settings: literature (De Graw et al.); cited from earlier work
T1 sequence (P00374 1-187): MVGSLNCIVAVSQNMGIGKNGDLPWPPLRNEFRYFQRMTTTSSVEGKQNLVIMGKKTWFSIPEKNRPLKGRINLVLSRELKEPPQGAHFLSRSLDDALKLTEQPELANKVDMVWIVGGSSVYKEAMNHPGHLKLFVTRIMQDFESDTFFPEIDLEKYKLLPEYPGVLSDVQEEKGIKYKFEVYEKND

[3] = biological target: T2, Folate Polyglutamate Synthetase (Mus musculus, UniProt P48760); test: Substrate for Folate Polyglutamate Synthetase (partially purified mouse liver FPGS); format: biochemical
T2 construct: Incubation with partially purified mouse liver FPGS; from tissue; host or cells: mouse liver
T2 sequence (P48760 43-587): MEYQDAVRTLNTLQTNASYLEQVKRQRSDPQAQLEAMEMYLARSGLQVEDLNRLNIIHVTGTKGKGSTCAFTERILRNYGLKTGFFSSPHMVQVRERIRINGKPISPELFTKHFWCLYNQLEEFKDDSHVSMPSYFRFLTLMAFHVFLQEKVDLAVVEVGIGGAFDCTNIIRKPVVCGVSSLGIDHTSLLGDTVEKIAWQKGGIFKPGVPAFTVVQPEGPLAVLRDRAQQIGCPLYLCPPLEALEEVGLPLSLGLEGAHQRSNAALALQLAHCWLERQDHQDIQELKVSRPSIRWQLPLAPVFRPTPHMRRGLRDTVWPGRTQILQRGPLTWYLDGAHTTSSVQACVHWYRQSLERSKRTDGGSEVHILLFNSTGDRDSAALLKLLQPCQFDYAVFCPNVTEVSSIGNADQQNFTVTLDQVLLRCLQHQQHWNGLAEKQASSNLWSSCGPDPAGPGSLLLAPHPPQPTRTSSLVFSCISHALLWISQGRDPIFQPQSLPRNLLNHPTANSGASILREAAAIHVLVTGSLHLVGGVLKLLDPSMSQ

[4] = tested on: L1210 murine leukemic cells; test: Inhibition of L1210 murine leukemic cells in tissue culture; format: cell-based; settings: Mus musculus, read-out: IC₅₀
[5] = biological target: T3, Dihydrofolate Reductase (DHFR) (Homo sapiens, UniProt P00374); test: Inhibition of Dihydrofolate Reductase (DHFR); format: biochemical
T3 sequence (P00374 1-187): T1 sequence (P00374 1-187)

[6] = tested on: mouse L1210 leukemia; settings: literature; cited from earlier work
[7] = tested on: L-1210 leukemia; test: Increase in life span, % ILS (Table 5, title only as image); format: in vivo
[8] = tested on: Methotrexate-Resistant L-1210 Leukemia; test: Effect on Methotrexate-Resistant L-1210 Leukemia; format: in vivo; settings: for Mean Increased Life span in days: in vivo
[9] = tested on: X5563 Plasma Cell Myeloma; settings: mouse, in vivo
[10] = tested on: B-16; test: Subcutaneous tumor growth inhibition in mice; settings: mouse, in vivo
[11] = tested on: Madison Lung; test: Subcutaneous tumor growth inhibition in mice; settings: mouse, in vivo
[12] = tested on: Lewis Lung Carcinoma; test: Subcutaneous tumor growth inhibition in mice; settings: mouse, in vivo
[13] = tested on: C3H Mammary Adenocarcinoma; test: Subcutaneous tumor growth inhibition in mice; settings: mouse, in vivo
[14] = tested on: 6C3HED Lymphosarcoma; test: Subcutaneous tumor growth inhibition in mice; settings: mouse, in vivo
[15] = literature (Taylor et al.); cited from earlier work
[16] = biological target: T2, Folate Polyglutamate Synthetase; settings: relative to folic acid; published data (Moran et al.); cited from earlier work
[17] = relative to folic acid, one hour at 37°C

## Nc1nc2ncc(CCc3ccc(C(=O)N[C@@H](CCC(=O)O)C(=O)O)cc3)nc2c(=O)[nH]1 [10-deazafolic acid]
[1]
  antimetabolic activity (in words): no significant activity

## Nc1nc2ccc(CCc3ccc(C(=O)N[C@@H](CCC(=O)O)C(=O)O)cc3)nc2c(=O)[nH]1 [8,10-Dideazafolic acid]
[2]
  effectiveness as a dihydrofolate reductase inhibitor (in words): only marginally effective

## Nc1nc(O)c2cc(CCc3ccc(C(=O)N[C@@H](CCC(=O)O)C(=O)O)cc3)cnc2n1 [Compound 2, N-(4-[2-(2-amino-4-hydroxypyrido[2,3-d]pyrimidin-6-yl)ethyl]benzoyl)-L-glutamic acid]
[3]; [17]
  Rel Vmax: 0.90 ± 0.10
[4]
  IC50: > 100000 nM
[5]
  IC50: 49000 nM

## Nc1nc(N)c2nc(CCc3ccc(C(=O)N[C@@H](CCC(=O)O)C(=O)O)cc3)cnc2n1 [10-Deaza-aminopterin]
[1]
  antimetabolic activity (in words): highly active

## Nc1nc(N)c2cc(CCc3ccc(C(=O)N[C@@H](CCC(=O)O)C(=O)O)cc3)ccc2n1 [5,8,10-trideazaaminopterin]
[6]
  activity against mouse L1210 leukemia (in words): exhibits activity

## Nc1nc2ccc(CCc3ccc(C(=O)N[C@@H](CCC(=O)O)C(=O)O)cc3)cc2c(=O)[nH]1 [5,8,10-trideazafolic acid]
[6]
  activity against mouse L1210 leukemia (in words): only marginal activity

## Nc1nc(N)c2c(n1)NCC(CCc1ccc(C(=O)N[C@@H](CCC(=O)O)C(=O)O)cc1)C2 (stereo partly drawn) [Compound 3, N-(4-[2-(2,4-diamino-5,6,7,8-tetrahydropyrido[2,3-d]pyrimidin-6-yl)ethyl]benzoyl)-L-glutamic acid]
[3]; [17]
  Rel Vmax: 1.61 ± 0.05
[7]; dose 1 mg/kg
  % ILS: 111%
[4]
  IC50: 3.3 nM
[5]
  IC50: 71 nM

## CN(Cc1cnc2nc(N)nc(N)c2n1)c1ccc(C(=O)N[C@@H](CCC(=O)O)C(=O)O)cc1 [Methotrexate, methotrexate, reference compound]
[8]; dose 2 mg/kg
  Mean Increased Life span: 0 days

## Nc1nc(N)c2nc(CCc3ccc(C(=O)N[C@@H](CCC(=O)O)C(=O)O)cc3)ccc2n1 [8,10-Dideazaaminopterin]
[1]
  antimetabolic activity (in words): active

## Nc1nc(N)c2cc(CCc3ccc(C(=O)N[C@@H](CCC(=O)O)C(=O)O)cc3)cnc2n1 [Compound 1, N-(4-[2(2,4-diaminopyrido[2,3-d]-pyrimidin-6-yl)ethyl]benzoyl)-L-glutamic acid]
[3]; [17]
  Rel Vmax: 0.35 ± 0.02
[7]; dose 4 mg/kg
  % ILS: 130%
[4]
  IC50: 17 nM
[5]
  IC50: 43 nM

## Nc1nc2c(c(=O)[nH]1)CC(CCc1ccc(C(=O)N[C@@H](CCC(=O)O)C(=O)O)cc1)CN2 (stereo partly drawn) [Compound 4, N-(4-[2-(2-amino-4-hydroxy-5,6,7,8-tetrahydropyrido[2,3-d]pyrimidin-6-yl)ethyl]benzoyl)-L-glutamic acid]
[9]
  % INHIBITION: 100%
  toxicity (footnote): † Toxic
[10]
  % INHIBITION: 98% and 99% and 100%
[3]
  Rel Vmax: 1.24 ± 0.10
[11]
  % INHIBITION: 54% and 72% and 87% and 90%
[8]; 2 mg/kg
  Mean Increased Life span in days: +8 days
[8]; 4 mg/kg
  Mean Increased Life span in days: +11 days
[8]; 8 mg/kg
  Mean Increased Life span in days: +17 days
[8]; 12 mg/kg
  Mean Increased Life span in days: +25 days
[7]; in vivo
  activity against L-1210 leukemia (in words): good activity
[7]; in vivo, 2 mg/kg
  % ILS: 27%
[7]; in vivo, 4 mg/kg
  % ILS: 35%
[7]; in vivo, 8 mg/kg
  % ILS: 59%
[7]; in vivo, 12 mg/kg
  % ILS: 63%
[12]
  % INHIBITION: 58% and 77% and 94% and 100%
[13]
  % INHIBITION: 86% and 100%
[5]
  inhibition of dihydrofolate reductase (in words): weak inhibitor
[14]
  % INHIBITION: 91% and 100%

## Nc1nc2ncc(CNc3ccc(C(=O)N[C@@H](CCC(=O)O)C(=O)O)cc3)cc2c(=O)[nH]1 [5-Deazafolic acid]
[15]
  cytotoxicity (in words): only weakly cytotoxic

## Nc1nc2c(c(=O)[nH]1)NC(CNc1ccc(C(=O)N[C@@H](CCC(=O)O)C(=O)O)cc1)CN2 (some centres unmarked) [FH4]
[16]
  Rel Vmax: 1.31 ± 0.07

— patent publication EP0215063B1, “PYRIDO (2,3-d )PYRIMIDIN DERIVATIVES” (priority 1985, dated 1986)
